From US11013232B2, “Hydrotesting and mothballing composition and method of using combination products for multifunctional water treatment” (priority 2014, dated 2021)

Experiment: Oxygen scavenging efficacy (real-time orbisphere oxygen sensor)
Conditions: 500 ppm
Protocol: Oxygen scavenging efficacy was evaluated using a real-time orbisphere oxygen sensor with data logging. The test equipment consisted of a stirrer plate and stirrer bar, a 1 liter test cell, circulation pump, flow chamber, oxygen sensor and data logger. Test work was performed using potable water taken from the mains water supply in The Woodlands, Tex. and then using filtered seawater taken from Galveston, Tex. Testing was performed at 4° C. and 25° C. by wrapping the test cell with a monoethylene glycol circulator chiller jacket. A carbon steel stirrer bar was added to the test cell to replicate turbulence that would be created upon pumping the hydrotest fluid using the metallurgy of a typical pipeline. A non-pulsing circulation pump was set to circulate the test fluid past the oxygen sensor at a rate of 10 mL·min^−1. The oxygen sensor was calibrated prior to every new test run. Each test was run for a duration of 60 minutes with a 10 minute stabilization period prior to the introduction of test chemical. Chemical was injected into the test cell by means of a needle and syringe through a rubber stopper to minimize any oxygen ingress during this stage of the test. Throughout the test, oxygen levels were measured once every minute and the data continuously logged.
All tests of the new formulations (detailed in Table 1) were benchmarked against has 50% ADMAC (specifically […]), 30% ammonium bisulfite and 20% water, herein referenced as Formulation 3 and detailed in Table 1. Furthermore ammonium bisulfite was used as a benchmark and the activity matched up to 30% which is the concentration used in all the formulations. Therefore all testing had the same concentration of oxygen scavenging component with the only variable being the other components of the formulation.
It should be noted that all testing was performed so that the concentration of oxygen scavenger was exactly the same in all tests so the only variables were the counter components in the formulations, this isolating the effects that combining components has upon the oxygen scavenging efficacy of the invented products. Therefore all formulations were added at 500 ppm. […] Furthermore, adding a dye into the formulation as well as the DDAC and DDABC, as is the case with Formulation 1, has no further negative effects on oxygen scavenging efficacy. It should be noted that scavenging in relatively warm seawater is not a very challenging environment to perform this testing in.

SMILES: N.O=S(O)O [ABS 30%, ammonium bisulfite]
- Oxygen level (ppm O2) (fresh water, 25° C., time 0 minutes (stabilization before chemical injection)): 8.314 ppm O2
- Oxygen level (ppm O2) (fresh water, 25° C., time 2 minutes (stabilization before chemical injection)): 8.346 ppm O2
- Oxygen level (ppm O2) (fresh water, 25° C., time 4 minutes (stabilization before chemical injection)): 8.310 ppm O2
- Oxygen level (ppm O2) (fresh water, 25° C., time 6 minutes (stabilization before chemical injection)): 8.265 ppm O2
- Oxygen level (ppm O2) (fresh water, 25° C., time 8 minutes (stabilization before chemical injection)): 8.345 ppm O2
- Oxygen level (ppm O2) (fresh water, 25° C., time 10 minutes (end of 10 minute stabilization)): 8.302 ppm O2
- Oxygen level (ppm O2) (fresh water, 25° C., time 12 minutes): 7.612 ppm O2
- Oxygen level (ppm O2) (fresh water, 25° C., time 14 minutes): 6.674 ppm O2
- Oxygen level (ppm O2) (fresh water, 25° C., time 16 minutes): 5.585 ppm O2
- Oxygen level (ppm O2) (fresh water, 25° C., time 18 minutes): 4.732 ppm O2
- Oxygen level (ppm O2) (fresh water, 25° C., time 20 minutes): 4.115 ppm O2
- Oxygen level (ppm O2) (fresh water, 25° C., time 22 minutes): 3.765 ppm O2
- Oxygen level (ppm O2) (fresh water, 25° C., time 24 minutes): 3.195 ppm O2
- Oxygen level (ppm O2) (fresh water, 25° C., time 26 minutes): 3.027 ppm O2
- Oxygen level (ppm O2) (fresh water, 25° C., time 28 minutes): 2.546 ppm O2
- Oxygen level (ppm O2) (fresh water, 25° C., time 30 minutes): 1.863 ppm O2
- Oxygen level (ppm O2) (fresh water, 25° C., time 32 minutes): 1.516 ppm O2
- Oxygen level (ppm O2) (fresh water, 25° C., time 34 minutes): 1.173 ppm O2
- Oxygen level (ppm O2) (fresh water, 25° C., time 36 minutes): 0.857 ppm O2
- Oxygen level (ppm O2) (fresh water, 25° C., time 38 minutes): 0.654 ppm O2
- Oxygen level (ppm O2) (fresh water, 25° C., time 40 minutes): 0.436 ppm O2
- Oxygen level (ppm O2) (fresh water, 25° C., time 42 minutes): 0.349 ppm O2
- Oxygen level (ppm O2) (fresh water, 25° C., time 44 minutes): 0.215 ppm O2
- Oxygen level (ppm O2) (fresh water, 25° C., time 46 minutes): 0.134 ppm O2
- Oxygen level (ppm O2) (fresh water, 25° C., time 48 minutes): 0.119 ppm O2
- Oxygen level (ppm O2) (fresh water, 25° C., time 50 minutes): 0.096 ppm O2
- Oxygen level (ppm O2) (fresh water, 25° C., time 52 minutes): 0.087 ppm O2
- Oxygen level (ppm O2) (fresh water, 25° C., time 54 minutes): 0.063 ppm O2
- Oxygen level (ppm O2) (fresh water, 25° C., time 56 minutes): 0.055 ppm O2
- Oxygen level (ppm O2) (fresh water, 25° C., time 58 minutes): 0.050 ppm O2
- Oxygen level (ppm O2) (fresh water, 25° C., time 60 minutes): 0.480 ppm O2
- Oxygen level (ppm O2) (seawater, 4° C., time 0 minutes (stabilization before chemical injection)): 7.554 ppm O2
- Oxygen level (ppm O2) (seawater, 4° C., time 2 minutes (stabilization before chemical injection)): 7.452 ppm O2
- Oxygen level (ppm O2) (seawater, 4° C., time 4 minutes (stabilization before chemical injection)): 7.357 ppm O2
- Oxygen level (ppm O2) (seawater, 4° C., time 6 minutes (stabilization before chemical injection)): 7.268 ppm O2
- Oxygen level (ppm O2) (seawater, 4° C., time 8 minutes (stabilization before chemical injection)): 7.121 ppm O2
- Oxygen level (ppm O2) (seawater, 4° C., time 10 minutes (end of 10 minute stabilization)): 6.997 ppm O2
- Oxygen level (ppm O2) (seawater, 4° C., time 12 minutes): 2.125 ppm O2
- Oxygen level (ppm O2) (seawater, 4° C., time 14 minutes): 0.454 ppm O2
- Oxygen level (ppm O2) (seawater, 4° C., time 16 minutes): 0.269 ppm O2
- Oxygen level (ppm O2) (seawater, 4° C., time 18 minutes): 0.064 ppm O2
- Oxygen level (ppm O2) (seawater, 4° C., time 20 minutes): 0.047 ppm O2
- Oxygen level (ppm O2) (seawater, 4° C., time 22 minutes): 0.029 ppm O2
- Oxygen level (ppm O2) (seawater, 4° C., time 24 minutes): 0.009 ppm O2
- Oxygen level (ppm O2) (seawater, 4° C., time 26 minutes): 0.003 ppm O2
- Oxygen level (ppm O2) (seawater, 4° C., time 28 minutes): 0.002 ppm O2
- Oxygen level (ppm O2) (seawater, 25° C., time 0 minutes (stabilization before chemical injection)): 7.112 ppm O2
- Oxygen level (ppm O2) (seawater, 25° C., time 2 minutes (stabilization before chemical injection)): 7.081 ppm O2
- Oxygen level (ppm O2) (seawater, 25° C., time 4 minutes (stabilization before chemical injection)): 7.029 ppm O2
- Oxygen level (ppm O2) (seawater, 25° C., time 6 minutes (stabilization before chemical injection)): 7.084 ppm O2
- Oxygen level (ppm O2) (seawater, 25° C., time 8 minutes (stabilization before chemical injection)): 7.066 ppm O2
- Oxygen level (ppm O2) (seawater, 25° C., time 10 minutes (end of 10 minute stabilization)): 7.061 ppm O2
- Oxygen level (ppm O2) (seawater, 25° C., time 12 minutes): 0.052 ppm O2
- Oxygen level (ppm O2) (seawater, 25° C., time 14 minutes): 0.013 ppm O2
- Oxygen level (ppm O2) (seawater, 25° C., time 16 minutes): 0.010 ppm O2
- Oxygen level (ppm O2) (seawater, 25° C., time 18 minutes): 0.009 ppm O2
- Oxygen level (ppm O2) (seawater, 25° C., time 20 minutes): 0.008 ppm O2
- Oxygen level (ppm O2) (seawater, 25° C., time 22 minutes): 0.007 ppm O2
- Oxygen level (ppm O2) (seawater, 25° C., time 24 minutes): 0.006 ppm O2
- Oxygen level (ppm O2) (seawater, 25° C., time 26 minutes): 0.005 ppm O2
- Oxygen level (ppm O2) (seawater, 25° C., time 28 minutes): 0.004 ppm O2
